Reference: US9624229B2, “Pyrimidine-2-amine compounds and their use as inhibitors of JAK kinases” (Rigel Pharmaceuticals, Inc., priority 2008, dated 2017)

molecular target: Ba/F3 V617F cells (Homo sapiens, UniProt O60674, V617F, cells depend on it); test: Proliferation assay (Cell Titer-Glo, 72 h) utilizing Ba/F3 V617F cells; assay type: cell-based, mouse; settings: Ba/F3 V617F cells, proliferation, level of activity given as class symbol, read-out: IC50 (the source's name)
Procedure, shortened: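 Readout is CellTiter-Glo luminescence after 72 h at 37 °C, giving IC50. Cells: Ba/F3 V617F, 1×10^5 cells/mL in RPMI with 10% FBS, treated in duplicate with 3-fold dilution series made from 5 mM DMSO stock, 1:250 in 5% FBS medium, added at 2×.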

Chain of Ba/F3 V617F cells (O60674 whole entry V617F): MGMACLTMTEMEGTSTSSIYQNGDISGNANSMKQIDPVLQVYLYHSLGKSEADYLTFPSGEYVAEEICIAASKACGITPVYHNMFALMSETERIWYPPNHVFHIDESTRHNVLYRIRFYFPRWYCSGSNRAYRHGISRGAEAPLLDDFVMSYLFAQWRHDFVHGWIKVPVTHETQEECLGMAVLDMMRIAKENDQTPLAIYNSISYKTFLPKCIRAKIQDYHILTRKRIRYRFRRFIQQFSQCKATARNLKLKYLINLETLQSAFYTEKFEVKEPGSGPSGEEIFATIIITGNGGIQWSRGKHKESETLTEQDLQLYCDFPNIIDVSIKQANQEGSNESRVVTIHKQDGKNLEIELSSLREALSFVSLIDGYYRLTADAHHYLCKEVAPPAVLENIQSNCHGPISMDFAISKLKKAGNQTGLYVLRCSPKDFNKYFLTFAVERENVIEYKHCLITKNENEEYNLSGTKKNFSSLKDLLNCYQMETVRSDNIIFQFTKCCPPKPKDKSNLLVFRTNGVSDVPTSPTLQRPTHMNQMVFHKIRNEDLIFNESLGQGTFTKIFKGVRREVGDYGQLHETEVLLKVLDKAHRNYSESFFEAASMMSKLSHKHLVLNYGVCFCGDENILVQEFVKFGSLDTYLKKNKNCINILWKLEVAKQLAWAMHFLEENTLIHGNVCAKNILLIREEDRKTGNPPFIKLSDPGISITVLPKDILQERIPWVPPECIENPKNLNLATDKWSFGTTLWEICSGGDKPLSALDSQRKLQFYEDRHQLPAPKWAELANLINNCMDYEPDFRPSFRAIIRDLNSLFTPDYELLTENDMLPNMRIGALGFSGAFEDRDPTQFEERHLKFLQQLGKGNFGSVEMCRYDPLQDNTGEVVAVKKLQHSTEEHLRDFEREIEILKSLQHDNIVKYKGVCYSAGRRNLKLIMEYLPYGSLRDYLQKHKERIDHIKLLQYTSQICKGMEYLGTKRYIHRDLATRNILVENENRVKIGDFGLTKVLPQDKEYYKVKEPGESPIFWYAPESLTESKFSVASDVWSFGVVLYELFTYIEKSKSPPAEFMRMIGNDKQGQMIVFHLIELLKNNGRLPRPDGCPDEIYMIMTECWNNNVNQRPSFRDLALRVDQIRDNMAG

Cc1cc(Nc2nccc(-c3ccc(N4C[C@@H]5C[C@H]4CO5)nc3)n2)ccc1N1C[C@@H]2C[C@H]1CN2C [compound 215, 4-(6-((1S,4S)-2-oxa-5-azabicyclo[2.2.1]heptan-5-yl)pyridin-3-yl)-N-(3-methyl-4-((1S,4S)-5-methyl-2,5-diazabicyclo[2.2.1]heptan-2-yl)phenyl)pyrimidin-2-amine] and Cc1cc(Nc2nccc(-c3ccc(N4CCOC(CN(C)C)C4)nc3)n2)ccc1N1C[C@@H]2C[C@H]1CN2C (stereo partly drawn) [compound 189, 4-(6-(2-(dimethylamino)methylmorpholin-4-yl)pyridin-3-yl)-N-(3-methyl-4-((1S,4S)-5-methyl-2,5-diazabicyclo[2.2.1]heptan-2-yl)phenyl)pyrimidin-2-amine] cannot be ordered by GI50: less than 1 µM for the first, less than 1 µM for the second.

Cc1cc(Nc2nccc(-c3ccc4c(c3)SCC(=O)N4)n2)ccc1N1C[C@@H]2C[C@H]1CN2C [compound 274, 4-(3-oxo-3,4-dihydro-2H-benzo[b][1,4]thiazin-7-yl)-N-(3-methyl-4-((1S,4S)-5-methyl-2,5-diazabicyclo[2.2.1]heptan-2-yl)phenyl)pyrimidin-2-amine] and Cc1cc(Nc2nccc(-c3cnc4c(c3)OCC(=O)N4)n2)ccc1N1C[C@@H]2C[C@H]1CN2C [compound 209, 4-(3-oxo-3,4-dihydro-2H-pyrido[3,2-b][1,4]oxazin-7-yl)-N-(3-methyl-4-((1S,4S)-5-methyl-2,5-diazabicyclo[2.2.1]heptan-2-yl)phenyl)pyrimidin-2-amine] cannot be ordered by GI50: less than 1 µM for the first, less than 1 µM for the second.

Cc1cc(Nc2nccc(-c3cnc4c(c3)OC(C)(C)C(=O)N4)n2)ccc1N1CC2(C)CN(C)CC(C)(C1)C2 [compound 207, 4-(2,2-dimethyl-3-oxo-3,4-dihydro-2H-pyrido[3,2-b][1,4]oxazin-7-yl)-N-(3-methyl-4-(1,5,7-trimethyl-3,7-diazabicyclo[3.3.1]nonan-3-yl)phenyl)pyrimidin-2-amine] and CN1C[C@@H]2C[C@H]1CN2c1ccc(Nc2nccc(-c3cnc4c(c3)OC(C)(C)C(=O)N4)n2)cc1Cl [compound 248, 4-(2,2-dimethyl-3-oxo-3,4-dihydro-2H-pyrido[3,2-b][1,4]oxazin-7-yl)-N-(3-chloro-4-((1S,4S)-5-methyl-2,5-diazabicyclo[2.2.1]heptan-2-yl)phenyl)pyrimidin-2-amine] cannot be ordered by GI50: less than 1 µM for the first, less than 1 µM for the second.

Compared with Cc1cc(Nc2nccc(-c3ccc(N4CCOCC4)nc3)n2)ccc1N1C[C@@H]2C[C@H]1CN2C(=N)N [compound 199, 4-(6-(morpholin-4-yl)pyridin-3-yl)-N-(3-methyl-4-((1S,4S)-5-amidino-2,5-diazabicyclo[2.2.1]heptan-2-yl)phenyl)pyrimidin-2-amine], Cc1cc(Nc2nccc(-c3ccc(N4CCCOCC4)nc3)n2)ccc1N1C[C@@H]2C[C@H]1CN2C [compound 206, 4-(6-(1,4-oxazepan-4-yl)pyridin-3-yl)-N-(3-methyl-4-((1S,4S)-5-methyl-2,5-diazabicyclo[2.2.1]heptan-2-yl)phenyl)pyrimidin-2-amine] is lower in GI50: 1 to 10 µM for the first, less than 1 µM for the second.

CCCNc1ccc(-c2ccnc(Nc3ccc(N4C[C@@H]5C[C@H]4CN5C)c(C)c3)n2)cn1 [compound 188, 4-(6-(propylamino)pyridin-3-yl)-N-(3-methyl-4-((1S,4S)-5-methyl-2,5-diazabicyclo[2.2.1]heptan-2-yl)phenyl)pyrimidin-2-amine] and Cc1cc(Nc2nccc(-c3ccc4c(c3)OC(C)(C)C(=O)N4)n2)ccc1N1C[C@@H]2C[C@H]1CN2S(C)(=O)=O [compound 241, 4-(2,2-dimethyl-3-oxo-3,4-dihydro-2H-benzo[b][1,4]oxazin-7-yl)-N-(3-methyl-4-((1S,4S)-5-methylsulfonyl-2,5-diazabicyclo[2.2.1]heptan-2-yl)phenyl)pyrimidin-2-amine] cannot be ordered by GI50: less than 1 µM for the first, less than 1 µM for the second.

same assay, conditions: Ba/F3 V617F cells, proliferation, level of activity to inhibit JAK2, read-out: IC50 (the source's name)

Cc1cc(Nc2nccc(-c3ccc(N(C)C)cc3)n2)ccc1N1C[C@@H]2C[C@H]1CN2C [compound 14, 4-(4-(N,N-dimethylamino)phenyl)-N-(3-methyl-4-((1S,4S)-5-methyl-2,5-diazabicyclo[2.2.1]heptan-2-yl)phenyl)pyrimidin-2-amine] and Cc1cc(Nc2nccc(-c3ccc(C(C)(C)C)cc3)n2)ccc1N1C[C@@H]2C[C@H]1CN2C [compound 46, 4-(4-(1,1-dimethylethyl)phenyl)-N-(3-methyl-4-((1S,4S)-5-methyl-2,5-diazabicyclo[2.2.1]heptan-2-yl)phenyl)pyrimidin-2-amine] cannot be ordered by GI50: less than 1 µM for the first, less than 1 µM for the second.

Cc1cc(Nc2nccc(-c3cnc4c(c3)OC(C)(C)C(=O)N4)n2)ccc1N1C[C@@H]2C[C@H]1CN2C [compound 130, 4-(2,2-dimethyl-3-oxo-3,4-dihydro-2H-pyrido[3,2-b][1,4]oxazin-7-yl)-N-(3-methyl-4-((1S,4S)-5-methyl-2,5-diazabicyclo[2.2.1]heptan-2-yl)phenyl)pyrimidin-2-amine] and CN1C[C@@H]2C[C@H]1CN2c1ccc(Nc2nccc(-c3cnc4c(c3)OC(C)(C)C(=O)N4)n2)cc1 [compound 137, 4-(2,2-dimethyl-3-oxo-3,4-dihydro-2H-pyrido[3,2-b][1,4]oxazin-7-yl)-N-(4-((1S,4S)-5-methyl-2,5-diazabicyclo[2.2.1]heptan-2-yl)phenyl)pyrimidin-2-amine] cannot be ordered by GI50: less than 1 µM for the first, less than 1 µM for the second.

CN1C[C@@H]2C[C@H]1CN2c1ccc(Nc2nccc(-c3cnc(N4CCOCC4)nc3)n2)cc1F [compound 43, 4-(2-(morpholin-4-yl)pyrimidin-5-yl)-N-(3-fluoro-4-((1S,4S)-5-methyl-2,5-diazabicyclo[2.2.1]heptan-2-yl)phenyl)pyrimidin-2-amine] and Cc1cc(Nc2nccc(-c3cnc(N4CCOCC4)c(C)c3)n2)ccc1N1C[C@@H]2C[C@H]1CN2C [compound 60, 4-(5-methyl-6-(morpholin-4-yl)pyridin-3-yl)-N-(3-methyl-4-((1S,4S)-5-methyl-2,5-diazabicyclo[2.2.1]heptan-2-yl)phenyl)pyrimidin-2-amine] cannot be ordered by GI50: less than 1 µM for the first, less than 1 µM for the second.

CN1C2CCC1CN(c1ccc(Nc3nccc(-c4cnc5c(c4)OC(C)(C)C(=O)N5)n3)cc1)C2 [compound 157, 4-(2,2-dimethyl-3-oxo-3,4-dihydro-2H-pyrido[3,2-b][1,4]oxazin-7-yl)-N-(4-(8-methyl-3,8-diazabicyclo[3.2.1]octan-3-yl)phenyl)pyrimidin-2-amine] and CC1(C)Oc2cc(-c3ccnc(Nc4ccc(N5C[C@@H]6C[C@H]5CN6)c(C(F)(F)F)c4)n3)cnc2NC1=O [compound 172, 4-(2,2-dimethyl-3-oxo-3,4-dihydro-2H-pyrido[3,2-b][1,4]oxazin-7-yl)-N-(3-trifluoromethyl-4-((1S,4S)-2,5-diazabicyclo[2.2.1]heptan-2-yl)phenyl)pyrimidin-2-amine] cannot be ordered by GI50: less than 1 µM for the first, less than 1 µM for the second.

CCCNc1ncc(-c2ccnc(Nc3ccc(N4C[C@@H]5C[C@H]4CN5C)c(F)c3)n2)cn1 [compound 93, 4-(2-(propyl)aminopyrimidin-5-yl)-N-(3-fluoro-4-((1S,4S)-5-methyl-2,5-diazabicyclo[2.2.1]heptan-2-yl)phenyl)pyrimidin-2-amine] and CN1C[C@@H]2C[C@H]1CN2c1ccc(Nc2nccc(-c3cnc4c(c3)OCCN4)n2)cc1F [compound 87, 4-(3,4-dihydro-2H-pyrido[3,2-b][1,4]oxazin-7-yl)-N-(3-fluoro-4-((1S,4S)-5-methyl-2,5-diazabicyclo[2.2.1]heptan-2-yl)phenyl)pyrimidin-2-amine] cannot be ordered by GI50: less than 1 µM for the first, less than 1 µM for the second.

CN1C[C@@H]2C[C@H]1CN2c1ccc(Nc2nccc(-c3ccc4c(c3)NC(=O)CO4)n2)cc1F [compound 124, 4-(2H-benzo[b][1,4]oxazin-3(4H)-on-6-yl)-N-(3-fluoro-4-((1S,4S)-5-methyl-2,5-diazabicyclo[2.2.1]heptan-2-yl)phenyl)pyrimidin-2-amine] and Cc1cc(Nc2nccc(-c3cnc4[nH]ccc4c3)n2)ccc1N1C[C@@H]2C[C@H]1CN2C [compound 22, 4-(1H-pyrrolo[2,3-b]pyridin-5-yl)-N-(3-methyl-4-((1S,4S)-5-methyl-2,5-diazabicyclo[2.2.1]heptan-2-yl)phenyl)pyrimidin-2-amine] cannot be ordered by GI50: less than 1 µM for the first, less than 1 µM for the second.

First: CNC(=O)Cc1ccc(-c2ccnc(Nc3ccc(N4C[C@@H]5C[C@H]4CN5C)c(C)c3)n2)cc1 [compound 48, 4-(4-((methyl)aminocarbonylmethyl)-phenyl)-N-(3-methyl-4-((1S,4S)-5-methyl-2,5-diazabicyclo[2.2.1]heptan-2-yl)phenyl)pyrimidin-2-amine]
Second: CCOCCCNc1ccc(-c2ccnc(Nc3ccc(N4C[C@@H]5C[C@H]4CN5C)c(C)c3)n2)cn1 [compound 186, 4-(6-(3-ethoxypropyl)aminopyridin-3-yl)-N-(3-methyl-4-((1S,4S)-5-methyl-2,5-diazabicyclo[2.2.1]heptan-2-yl)phenyl)pyrimidin-2-amine]
The GI50 of the first is higher: 1 to 10 µM for the first, less than 1 µM for the second.

First: CN1CC2(C)CN(c3ccc(Nc4nccc(-c5ccc(N6CCOCC6)nc5)n4)cc3F)CC(C)(C1)C2 [compound 85, 4-(6-(morpholin-4-yl)pyridin-3-yl)-N-(3-fluoro-4-(1,5,7-trimethyl-3,7-diazabicyclo[3.3.1]nonan-3-yl)phenyl)pyrimidin-2-amine]
Second: CN1C[C@@H]2C[C@H]1CN2c1ccc(Nc2nccc(-c3ccc(NC(=O)CN4CCOCC4)nc3)n2)cc1 [compound 142, 4-(6-(2-(morpholin-4-yl)acetamido)pyridin-3-yl)-N-(4-((1S,4S)-5-methyl-2,5-diazabicyclo[2.2.1]heptan-2-yl)phenyl)pyrimidin-2-amine]
The GI50 of the first is lower: less than 1 µM for the first, 1 to 10 µM for the second.

same assay, conditions: inhibition of JAK2 activity, proliferation of Ba/F3 V617F cells, read-out: IC50 (the source's name)

Compound CC(=O)Nc1ccc(-c2ccnc(Nc3cnc(N4C[C@@H]5C[C@H]4CN5C)c(C)c3)n2)cn1 [compound 146, 4-(6-(acetamido)pyridin-3-yl)-N-(5-methyl-6-((1S,4S)-5-methyl-2,5-diazabicyclo[2.2.1]heptan-2-yl)pyridin-3-yl)pyrimidin-2-amine] has a GI50 of 1 to 10 µM.
